{
  "source": "patent US11780826B2",
  "about": "(Amgen Inc., priority 2017, dated 2023)",
  "data": [
    {"test_system": "Bovine cardiac myofibrils", "assay": "In vitro model of dose-dependent myofibril ATPase modulation (AC1.4, pyruvate kinase/lactate dehydrogenase-coupled ATPase assay at pCa25)", "format": "biochemical", "settings": "concentration at which ATPase activity was 1.4-fold higher than the bottom of the dose curve, mean of a minimum of two independent tests", "in_short": "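Absorbance at 340 nm tracked ATP hydrolysis through pyruvate kinase/lactate dehydrogenase coupling (0.5 mM NADH, 1.5 mM PEP). Myofibrils from detergent-homogenized bovine heart, 1 mM ATP, pH 6.80, EGTA/CaCl2 buffering. Dose-response curves fitted with a four-parameter Hill equation.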", "units": {"AC1.4": "µM"}, "values": [
      {"smiles": "CCS(=O)(=O)c1cncc(C(=O)N2[C@@H](C(=O)N[C@@H](c3cc(F)c(Cl)cc3F)C3CC3)C[C@H]3C[C@H]32)c1", "note": "[Example 160, (1R,3R,5R)-N-((R)-(4-chloro-2,5-difluorophenyl)(cyclopropyl)methyl)-2-((5-(ethylsulfonyl)-3-pyridinyl)carbonyl)-2-azabicyclo[3.1.0]hexane-3-carboxamide]", "AC1.4": 0.274},
      {"smiles": "CS(=O)(=O)c1cccc(C(=O)N2[C@@H](C(=O)N[C@@H](c3ccc(C(F)(F)F)cc3F)C3CCC3)C[C@H]3C[C@H]32)c1", "note": "[Example 161, (1R,3R,5R)-N-((R)-cyclobutyl(2-fluoro-4-(trifluoromethyl)phenyl)methyl)-2-(3-(methylsulfonyl)benzoyl)-2-azabicyclo[3.1.0]hexane-3-carboxamide]", "AC1.4": 0.2746},
      {"smiles": "CN(Cc1ccc(Cl)cc1)C(=O)C1CCCN1C(=O)c1cccc(S(=O)(=O)N2CC(C#N)C2)c1", "note": "(centres unmarked) [Example 162, N-(4-chlorobenzyl)-1-((3-((3-cyano-1-azetidinyl)sulfonyl)phenyl)carbonyl)-N-methyl-prolinamide]", "AC1.4": 0.2767},
      {"smiles": "O=C(N[C@@H](c1cc(F)c(Cl)cc1F)C1CC1)[C@H]1C[C@H]2C[C@H]2N1C(=O)c1cncc(S(=O)(=O)C2CC2)c1", "note": "[Example 163, (1R,3R,5R)-N-((R)-(4-chloro-2,5-difluorophenyl)(cyclopropyl)methyl)-2-((5-(cyclopropylsulfonyl)-3-pyridinyl)carbonyl)-2-azabicyclo[3.1.0]hexane-3-carboxamide]", "AC1.4": 0.2773},
      {"smiles": "N#CC1CN(S(=O)(=O)N2CCC[C@H](C(=O)N3CCC[C@@H]3C(=O)NCc3ccc(Cl)cc3)C2)C1", "note": "[Example 164, N-(4-chlorobenzyl)-1-(((3S)-1-((3-cyano-1-azetidinyl)sulfonyl)-3-piperidinyl)carbonyl)-D-prolinamide]", "AC1.4": 0.2785},
      {"smiles": "CC[C@H](NC(=O)[C@H]1CCCN1C(=O)c1cccc(S(=O)(=O)N2CC(C#N)C2)c1)c1cc(F)cc(F)c1", "note": "[Example 165, 1-(3-((3-cyano-1-azetidinyl)sulfonyl)benzoyl)-N-((1S)-1-(3,5-difluorophenyl)propyl)-D-prolinamide]", "AC1.4": 0.2792},
      {"smiles": "O=C(NCc1ccc(C(F)(F)F)cc1)[C@H]1CCCN1C(=O)[C@H]1CCCN(S(=O)(=O)N2CCC2c2cccc(F)c2)C1", "note": "(stereo partly drawn) [Example 166, 1-(((3S)-1-((-2-(3-fluorophenyl)-1-azetidinyl)sulfonyl)-3-piperidinyl)carbonyl)-N-(4-(trifluoromethyl)benzyl)-D-prolinamide]", "AC1.4": 0.2807},
      {"smiles": "N#CC1CN(S(=O)(=O)N2CCC(F)=C(C(=O)N3CCC[C@@H]3C(=O)NCc3ccc(C(F)(F)F)cc3)C2)C1", "note": "[Example 168, 1-((1-((3-cyano-1-azetidinyl)sulfonyl)-4-fluoro-l,2,5,6-tetrahydro-3-pyridinyl)carbonyl)-N-(4-(trifluoromethyl)benzyl)-D-prolinamide]", "AC1.4": 0.2875},
      {"smiles": "N#CC1CN(S(=O)(=O)N2CCC[C@H](C(=O)N3CCC[C@@H]3C(=O)N[C@H](CO)c3ccc(Cl)cc3)C2)C1", "note": "[Example 169, N-((1S)-1-(4-chlorophenyl)-2-hydroxyethyl)-1-(((3S)-1-((3-cyano-1-azetidinyl)sulfonyl)-3-piperidinyl)carbonyl)-D-prolinamide]", "AC1.4": 0.2892},
      {"smiles": "O=C(N[C@@H](c1cc(F)c(Cl)cc1F)C1COC1)[C@H]1C[C@H]2C[C@H]2N1C(=O)c1ccnc(C(F)(F)F)c1", "note": "[Example 171, (1R,3R,5R)-N-((R)-(4-chloro-2,5-difluorophenyl)(3-oxetanyl)methyl)-2-((2-(trifluoromethyl)-4-pyridinyl)carbonyl)-2-azabicyclo[3.1.0]hexane-3-carboxamide]", "AC1.4": 0.2934},
      {"smiles": "N#CC1CN(S(=O)(=O)N2C[C@H]3C[C@@H]2[C@H](C(=O)N2CCC[C@@H]2C(=O)NCc2ccc(C(F)(F)F)cc2)C3)C1", "note": "[Example 172, 1-(((1R,4R,6R)-2-((3-cyano-1-azetidinyl)sulfonyl)-2-azabicyclo[2.2.1]hept-6-yl)carbonyl)-N-(4-(trifluoromethyl)benzyl)-D-prolinamide]", "AC1.4": 0.2959},
      {"smiles": "CS(=O)(=O)c1cccc(C(=O)N2C[C@@H](F)C[C@@H]2C(=O)N[C@@H](c2cc(F)c(C(F)(F)F)cc2F)C2CC2)c1", "note": "[Example 173, (4S)-N-((R)-cyclopropyl(2,5-difluoro-4-(trifluoromethyl)phenyl)methyl)-4-fluoro-1-(3-(methylsulfonyl)benzoyl)-D-prolinamide]", "AC1.4": 0.3001},
      {"smiles": "N#CC1CN(S(=O)(=O)N2CCN[C@H](C(=O)N3CCC[C@@H]3C(=O)NCc3ccc(Cl)c(F)c3)C2)C1", "note": "[Example 174, N-(4-chloro-3-fluorobenzyl)-1-(((2S)-4-((3-cyano-1-azetidinyl)sulfonyl)-2-piperazinyl)carbonyl)-D-prolinamide]", "AC1.4": 0.3052},
      {"smiles": "C[C@@H](NC(=O)[C@H]1COCCN1C(=O)[C@H]1CCCN(S(=O)(=O)N2CC(C#N)C2)C1)c1ccc(C(F)(F)F)cc1", "note": "[Example 175, (3R)-4-(((3S)-1-((3-cyano-1-azetidinyl)sulfonyl)-3-piperidinyl)carbonyl)-N-((1R)-1-(4-(trifluoromethyl)phenyl)ethyl)-3-morpholinecarboxamide]", "AC1.4": 0.3064},
      {"smiles": "COc1cc(Cl)ccc1CNC(=O)[C@H]1CCCN1C(=O)[C@H]1CCCN(S(=O)(=O)N2CC(C#N)C2)C1", "note": "[Example 176, N-(4-chloro-2-methoxybenzyl)-1-(((3S)-1-((3-cyano-1-azetidinyl)sulfonyl)-3-piperidinyl)carbonyl)-D-prolinamide]", "AC1.4": 0.3085},
      {"smiles": "N#CC1CN(S(=O)(=O)N2CCC[C@H](C(=O)N3C[C@@H]4C[C@@H]4[C@@H]3C(=O)NCc3ccc(C(F)(F)F)cc3)C2)C1", "note": "[Example 177, (1S,2R,5R)-3-(((3S)-1-((3-cyano-1-azetidinyl)sulfonyl)-3-piperidinyl)carbonyl)-N-(4-(trifluoromethyl)benzyl)-3-azabicyclo[3.1.0]hexane-2-carboxamide]", "AC1.4": 0.3113},
      {"smiles": "CCS(=O)(=O)c1cccc(C(=O)N2[C@@H](C(=O)N[C@@H](c3cc(F)c(C(F)F)cc3F)C3CC3)C[C@H]3C[C@H]32)c1", "note": "[Example 178, (1R,3R,5R)-N-((R)-cyclopropyl(4-(difluoromethyl)-2,5-difluorophenyl)methyl)-2-(3-(ethylsulfonyl)benzoyl)-2-azabicyclo[3.1.0]hexane-3-carboxamide]", "AC1.4": 0.314},
      {"smiles": "CS(=O)(=O)c1cccc(C(=O)N2CCC[C@@H]2C(=O)N[C@@H](c2ccc(C(F)(F)F)c(F)c2)C2COC2)c1", "note": "[Example 179, N-((R)-(3-fluoro-4-(trifluoromethyl)phenyl)(3-oxetanyl)methyl)-1-(3-(methylsulfonyl)benzoyl)-D-prolinamide]", "AC1.4": 0.3231},
      {"smiles": "O=C(NCc1ccc(C(F)(F)F)cc1)[C@H]1CCCN1C(=O)[C@H]1CCCN(S(=O)(=O)N2CCC2c2cccc(Br)c2)C1", "note": "(stereo partly drawn) [Example 180, 1-(((3S)-1-((-2-(3-bromophenyl)-1-azetidinyl)sulfonyl)-3-piperidinyl)carbonyl)-N-(4-(trifluoromethyl)benzyl)-D-prolinamide]", "AC1.4": 0.3256},
      {"smiles": "Cc1ccc(CNC(=O)[C@H]2CCCN2C(=O)[C@H]2CCCN(S(=O)(=O)N3CC(C#N)C3)C2)c(F)c1", "note": "[Example 181, 1-(((3S)-1-((3-cyano-1-azetidinyl)sulfonyl)-3-piperidinyl)carbonyl)-N-(2-fluoro-4-methylbenzyl)-D-prolinamide]", "AC1.4": 0.3278}
    ]}
  ]
}
